ChEMBL document CHEMBL5724914, “Linking interpersonal differences in gut microbiota composition and drug biotransformation activity” (2024)

Legend:
[1] = human gut metagenome, 24 h, 2 µM
[2] = human gut metagenome, 24 h, 2 µM; remark: listed apart in the source
[3] = human gut metagenome, 24 h, 2 µM; remark: listed apart in the source
[4] = The drug is tested on Z-012 corresponding to metagenome with ENA study accession number: PRJEB37062 and ENA sample accession number: ERS12561812 for biotransformation under anaerobic condition. The drug concentrations were measured over 9 timepoints collected between 0 and 24 hours of incubation by liquid-chromatography-coupled mass spectrometry (LC–MS); settings: 2 µM
[5] = The drug is tested on Z-020 corresponding to rabbit gut metagenome with ENA study accession number: PRJEB37062 and ENA sample accession number: ERS12561819 for biotransformation under anaerobic condition. The drug concentrations were measured over 9 timepoints collected between 0 and 24 hours of incubation by liquid-chromatography-coupled mass spectrometry (LC–MS); settings: 2 µM
[6] = human gut metagenome, 24 h, 2 µM; remark: listed apart in the source
[7] = human gut metagenome, 24 h, 2 µM; remark: listed apart in the source
[8] = human gut metagenome, 24 h, 2 µM; remark: listed apart in the source
[9] = The drug is tested on Z-005 corresponding to metagenome with ENA study accession number: PRJEB37062 and ENA sample accession number: ERS12561805 for biotransformation under anaerobic condition. The drug concentrations were measured over 9 timepoints collected between 0 and 24 hours of incubation by liquid-chromatography-coupled mass spectrometry (LC–MS); settings: 2 µM
[10] = human gut metagenome, 24 h, 2 µM; remark: listed apart in the source
[11] = The drug is tested on Z-023 corresponding to metagenome with ENA study accession number: PRJEB37062 and ENA sample accession number: ERS12561822 for biotransformation under anaerobic condition. The drug concentrations were measured over 9 timepoints collected between 0 and 24 hours of incubation by liquid-chromatography-coupled mass spectrometry (LC–MS); settings: 2 µM
[12] = human gut metagenome, 24 h, 2 µM; remark: listed apart in the source
[13] = human gut metagenome, 24 h, 2 µM; remark: listed apart in the source
[14] = human gut metagenome, 24 h, 2 µM; remark: listed apart in the source
[15] = human gut metagenome, 24 h, 2 µM; remark: listed apart in the source
[16] = The drug is tested on Z-002 corresponding to rabbit gut metagenome with ENA study accession number: PRJEB37062 and ENA sample accession number: ERS12561802 for biotransformation under anaerobic condition. The drug concentrations were measured over 9 timepoints collected between 0 and 24 hours of incubation by liquid-chromatography-coupled mass spectrometry (LC–MS); settings: 2 µM
[17] = The drug is tested on Z-006 corresponding to mouse gut metagenome with ENA study accession number: PRJEB37062 and ENA sample accession number: ERS12561806 for biotransformation under anaerobic condition. The drug concentrations were measured over 9 timepoints collected between 0 and 24 hours of incubation by liquid-chromatography-coupled mass spectrometry (LC–MS); settings: 2 µM
[18] = The drug is tested on Z-019 corresponding to rat gut metagenome with ENA study accession number: PRJEB37062 and ENA sample accession number: ERS12561818 for biotransformation under anaerobic condition. The drug concentrations were measured over 9 timepoints collected between 0 and 24 hours of incubation by liquid-chromatography-coupled mass spectrometry (LC–MS); settings: 2 µM
[19] = human gut metagenome, 24 h, 2 µM; remark: listed apart in the source
[20] = The drug is tested on Z-021 corresponding to metagenome with ENA study accession number: PRJEB37062 and ENA sample accession number: ERS12561820 for biotransformation under anaerobic condition. The drug concentrations were measured over 9 timepoints collected between 0 and 24 hours of incubation by liquid-chromatography-coupled mass spectrometry (LC–MS); settings: 2 µM
Also: call rule not given here.

| Compound | Bacterial Biotransformation [1] | Bacterial Biotransformation [2] | Bacterial Biotransformation [3] | Bacterial Biotransformation [4] | Bacterial Biotransformation [5] | Bacterial Biotransformation [6] | Bacterial Biotransformation [7] | Bacterial Biotransformation [8] | Bacterial Biotransformation [9] | Bacterial Biotransformation [10] | Bacterial Biotransformation [11] | Bacterial Biotransformation [12] | Bacterial Biotransformation [13] | Bacterial Biotransformation [14] | Bacterial Biotransformation [15] | Bacterial Biotransformation [16] | Bacterial Biotransformation [17] | Bacterial Biotransformation [18] | Bacterial Biotransformation [19] | Bacterial Biotransformation [20] |
| --- | --- | --- | --- | --- | --- | --- | --- | --- | --- | --- | --- | --- | --- | --- | --- | --- | --- | --- | --- | --- |
| NC(=O)N1c2ccccc2CC(=O)c2ccccc21 [OXCARBAZEPINE] | Compound NOT metabolized | Compound NOT metabolized | Compound NOT metabolized | Compound NOT metabolized | Compound NOT metabolized | Compound NOT metabolized | Compound NOT metabolized | Compound NOT metabolized | Compound metabolized | Compound NOT metabolized | Compound metabolized | Compound NOT metabolized | Compound NOT metabolized | Compound metabolized | Compound NOT metabolized | Compound metabolized | Compound NOT metabolized | Compound NOT metabolized | Compound NOT metabolized | Compound NOT metabolized |
| CCN(CC)CC#CCOC(=O)C(O)(c1ccccc1)C1CCCCC1.Cl (stereo not given) [OXYBUTYNIN CHLORIDE] | Compound metabolized | Compound metabolized | Compound metabolized | Compound metabolized | Compound metabolized | Compound metabolized | Compound metabolized | Compound metabolized | Compound metabolized | Compound metabolized | Compound metabolized | Compound metabolized | Compound metabolized | Compound metabolized | Compound NOT metabolized | Compound metabolized | Compound NOT metabolized | Compound NOT metabolized | Compound metabolized | Compound metabolized |
| Fc1ccc([C@@H]2CCNC[C@H]2COc2ccc3c(c2)OCO3)cc1 [PAROXETINE] | Compound metabolized | Compound metabolized | Compound metabolized | Compound NOT metabolized | Compound NOT metabolized | Compound NOT metabolized | Compound metabolized | Compound NOT metabolized | Compound metabolized | Compound metabolized | Compound metabolized | Compound NOT metabolized | Compound metabolized | Compound metabolized | Compound metabolized | Compound NOT metabolized | Compound NOT metabolized | Compound NOT metabolized | Compound metabolized | Compound metabolized |
| O=c1[nH]c2ccccc2n1C1CCN(CCCC(c2ccc(F)cc2)c2ccc(F)cc2)CC1 [PIMOZIDE] | Compound metabolized | Compound metabolized | Compound metabolized | Compound metabolized | Compound metabolized | Compound metabolized | Compound metabolized | Compound NOT metabolized | Compound metabolized | Compound metabolized | Compound NOT metabolized | Compound metabolized | Compound metabolized | Compound metabolized | Compound NOT metabolized | Compound NOT metabolized | Compound metabolized | Compound NOT metabolized | Compound metabolized | Compound metabolized |
| CS(=O)(=O)O.OC(CCN1CCCCC1)(c1ccccc1)c1ccccc1 [PRIDINOL METHANESULFONATE] | Compound metabolized | Compound metabolized | Compound metabolized | Compound NOT metabolized | Compound NOT metabolized | Compound NOT metabolized | Compound metabolized | Compound metabolized | Compound NOT metabolized | Compound NOT metabolized | Compound NOT metabolized | Compound NOT metabolized | Compound NOT metabolized | Compound NOT metabolized | Compound NOT metabolized | Compound metabolized | Compound NOT metabolized | Compound NOT metabolized | Compound metabolized | Compound NOT metabolized |
| CC(CN1c2ccccc2Sc2ccccc21)N(C)C (stereo not given) [PROMETHAZINE] | Compound metabolized | Compound NOT metabolized | Compound metabolized | Compound NOT metabolized | Compound NOT metabolized | Compound metabolized | Compound metabolized | Compound NOT metabolized | Compound NOT metabolized | Compound metabolized | Compound metabolized | Compound NOT metabolized | Compound NOT metabolized | Compound metabolized | Compound NOT metabolized | Compound NOT metabolized | Compound NOT metabolized | Compound NOT metabolized | Compound NOT metabolized | Compound NOT metabolized |
